Results from patent US10897898B2, “Herbicidal composition comprising cinmethylin and acetochlor or pretilachlor” (BASF Agro B.V., priority 2015, dated 2021).

Columns and labels:
Assay type in all cases: in vivo
Settings in all cases: 20 DAT
Abutilon theophrasti = test: greenhouse pre-emergence herbicidal activity on ABUTH
Experimental: (§1) The test plants have been seeded, separately for each species, in plastic containers in sandy loamy soil containing 5% of organic matter.
(§2) The containers were irrigated gently to promote germination and growth and subsequently covered with transparent plastic hoods until the plants had rooted.
(§3) The plants have been cultivated due to their individual requirements at 10-25° C. and 20-35° C. The plants were irrigated due to their necessity.
(§4) The racemic mixture (±)-2-exo-(2-Methylbenzyloxy)-1-methyl-4-isopropyl-7-oxabicyclo[2.2.1]heptane was used as herbicide A and formulated as emulsifiable concentrates with an active ingredient concentration of 50 g/l, 100 g/l or 750 g/l respectively.
(§5) Acetochlor (herbicide B.1) was used as an encapsulated (CS) formulation having an active ingredient concentration of 400 g/l+67 g/l dichlormid as safener.
(§6) Pretilachlor (herbicide B.2) was used as emulsifiable concentrate (EC) formulation having an active ingredient concentration of 120 g/l.
(§7) In the following experiments, the herbicidal activity for the individual herbicidal compositions (solo and mixture applications) was assessed 20 days after treatment (DAT).
(§8) The evaluation for the damage on undesired weeds caused by the chemical compositions was carried out using a scale from 0 to 100%, compared to the untreated control plants. Here, 0 means no damage and 100 means complete destruction of the plants.
(§9) E=X+Y−(X·Y/100) where X=effect in percent using herbicide A at an application rate a; • Y=effect in percent using herbicide B at application rate b; • E=expected effect (in %) of herbicide A+herbicide B at application rates a+b.
(§10) The value E corresponds to the effect (plant damage or injury) which is to be expected if the activity of the individual compounds is additive. If the observed effect is higher than the value E calculated according to the Colby equation, a synergistic effect is present.
(§11) Tables 1 and 2 below relate to the herbicidal activity, in greenhouse trials, of the individual actives and the combinations applied at different rates and ratios, in pre-emergence application at 20 days after treatment (DAT).

Alopecurus myosuroides = test: greenhouse pre-emergence herbicidal activity on ALOMY
Experimental: as §1, §2, §3, §4, §5, §6, §7, §8, §9, §10, §11

Anthemis arvensis = test: greenhouse pre-emergence herbicidal activity on ANTAR
Experimental: as §1, §2, §3, §4, §5, §6, §7, §8, §9, §10, §11

Avena fatua = test: greenhouse pre-emergence herbicidal activity on AVEFA
Experimental: as §1, §2, §3, §4, §5, §6, §7, §8, §9, §10, §11

Chenopodium album = test: greenhouse pre-emergence herbicidal activity on CHEAL
Experimental: as §1, §2, §3, §4, §5, §6, §7, §8, §9
(§12) The value E corresponds to the effect (plant damage or injury) which is to be expected if the activity of the individual compounds is additive. If the observed effect is higher than the value E calculated according to the Colby equation, a synergistic effect is present. […]

Lolium multiflorum = test: greenhouse pre-emergence herbicidal activity on LOLMU
Experimental: as §1, §2, §3, §4, §5, §6, §7, §8, §9, §10, §11

Polygonum convolvulus = test: greenhouse pre-emergence herbicidal activity on POLCO
Experimental: as §1, §2, §3, §4, §5, §6, §7, §8, §9, §10, §11

Stellaria media = test: greenhouse pre-emergence herbicidal activity on STEME
Experimental: as §1, §2, §3, §4, §5, §6, §7, §8, §9, §10, §11

Echinochloa crus-galli = test: greenhouse pre-emergence herbicidal activity on ECHCG
Experimental: as §1, §2, §3, §4
Acetochlor (herbicide B.1) was used as an encapsulated (CS) formulation having an active ingredient concentration of 400 g/l+67 g/l dichlormid as safener. […]
In the following experiments, the herbicidal activity for the individual herbicidal compositions (solo and mixture applications) was assessed 20 days after treatment (DAT). […]
as §12

Geranium dissectum = test: greenhouse pre-emergence herbicidal activity on GERDI
Experimental: as §1, §2, §3, §4, §5, §6, §7, §8, §9, §10, §11

Setaria viridis = test: greenhouse pre-emergence herbicidal activity on SETVI
Experimental: as §1, §2, §3, §4, §5, §6, §7, §8, §9, §10, §11

Sorghum halepense = test: greenhouse pre-emergence herbicidal activity on SORHA
Experimental: as §1, §2, §3, §4, §5, §6, §7, §8, §9, §10, §11

How did the “herbicidal activity, solo application acetochlor” value (Abutilon theophrasti; 63 g ai/ha) turn out when `CCOCN(C(=O)CCl)c1c(C)cccc1CC` [acetochlor, 2-chloro-N-(ethoxymethyl)-N-(2-ethyl-6-methylphenyl)acetamide] was run?
The value was 0%.

What about the “herbicidal activity, solo application acetochlor” value (Abutilon theophrasti; 125 g ai/ha) of the same compound?
Its value is 0%.

What about the “herbicidal activity, solo application acetochlor” value (Alopecurus myosuroides; 63 g ai/ha) of the same compound?
Its value is 50%.

What about the “herbicidal activity, solo application acetochlor” value (Anthemis arvensis; 63 g ai/ha) of the same compound?
Its value is 35%.

What about the “herbicidal activity, solo application acetochlor” value (Anthemis arvensis; 125 g ai/ha) of the same compound?
The value was 70%.

What about the “herbicidal activity, solo application acetochlor” value (Anthemis arvensis; 250 g ai/ha) of the same compound?
The value was 80%.

What about the “herbicidal activity, solo application acetochlor” value (Anthemis arvensis; 500 g ai/ha) of the same compound?
Its value is 90%.

What about the “herbicidal activity, solo application acetochlor” value (Avena fatua; 63 g ai/ha) of the same compound?
The value was 20%.

What about the “herbicidal activity, solo application acetochlor” value (Avena fatua; 125 g ai/ha) of the same compound?
The value was 70%.

And the “herbicidal activity, solo application acetochlor” value (Avena fatua; 250 g ai/ha)?
Its value is 70%.

And the “herbicidal activity, solo application acetochlor” value (Avena fatua; 500 g ai/ha)?
Its value is 80%.

And the “herbicidal activity, solo application acetochlor” value (Chenopodium album; 63 g ai/ha)?
The value was 40%.

And the “herbicidal activity, solo application acetochlor” value (Lolium multiflorum; 63 g ai/ha)?
Its value is 70%.

What about the “herbicidal activity, solo application acetochlor” value (Lolium multiflorum; 250 g ai/ha) of the same compound?
The value was 95%.

And the “herbicidal activity, solo application acetochlor” value (Polygonum convolvulus; 125 g ai/ha)?
Its value is 0%.

What about the “herbicidal activity, solo application acetochlor” value (Polygonum convolvulus; 250 g ai/ha) of the same compound?
The value was 20%.

And the “herbicidal activity, solo application acetochlor” value (Polygonum convolvulus; 500 g ai/ha)?
The value was 40%.

And the “herbicidal activity, solo application acetochlor” value (Stellaria media; 250 g ai/ha)?
Its value is 98%.

How did the “herbicidal activity, solo application pretilachlor” value (Alopecurus myosuroides; 63 g ai/ha) turn out when `CCCOCCN(C(=O)CCl)c1c(CC)cccc1CC` [pretilachlor, 2-chloro-N-(2,6-diethylphenyl)-N-(2-propoxyethyl)acetamide] was run?
Its value is 40%.

What about the “herbicidal activity, solo application pretilachlor” value (Alopecurus myosuroides; 125 g ai/ha) of the same compound?
The value was 40%.

What about the “herbicidal activity, solo application pretilachlor” value (Anthemis arvensis; 31.3 g ai/ha) of the same compound?
Its value is 20%.

What about the “herbicidal activity, solo application pretilachlor” value (Anthemis arvensis; 63 g ai/ha) of the same compound?
The value was 20%.

What about the “herbicidal activity, solo application pretilachlor” value (Anthemis arvensis; 125 g ai/ha) of the same compound?
Its value is 30%.

What about the “herbicidal activity, solo application pretilachlor” value (Anthemis arvensis; 250 g ai/ha) of the same compound?
The value was 30%.

And the “herbicidal activity, solo application pretilachlor” value (Avena fatua; 63 g ai/ha)?
The value was 15%.

And the “herbicidal activity, solo application pretilachlor” value (Avena fatua; 125 g ai/ha)?
Its value is 20%.

What about the “herbicidal activity, solo application pretilachlor” value (Avena fatua; 250 g ai/ha) of the same compound?
The value was 25%.

And the “herbicidal activity, solo application pretilachlor” value (Chenopodium album; 31.3 g ai/ha)?
The value was 30%.

What about the “herbicidal activity, solo application pretilachlor” value (Echinochloa crus-galli; 31.3 g ai/ha) of the same compound?
Its value is 20%.

What about the “herbicidal activity, solo application pretilachlor” value (Lolium multiflorum; 31.3 g ai/ha) of the same compound?
The value was 0%.

And the “herbicidal activity, solo application pretilachlor” value (Lolium multiflorum; 63 g ai/ha)?
Its value is 0%.

What about the “herbicidal activity, solo application pretilachlor” value (Lolium multiflorum; 125 g ai/ha) of the same compound?
The value was 25%.

And the “herbicidal activity, solo application pretilachlor” value (Geranium dissectum; 31.3 g ai/ha)?
The value was 0%.

What about the “herbicidal activity, solo application pretilachlor” value (Geranium dissectum; 63 g ai/ha) of the same compound?
Its value is 0%.

What about the “herbicidal activity, solo application pretilachlor” value (Geranium dissectum; 125 g ai/ha) of the same compound?
The value was 20%.

What about the “herbicidal activity, solo application pretilachlor” value (Polygonum convolvulus; 63 g ai/ha) of the same compound?
The value was 15%.

What about the “herbicidal activity, solo application pretilachlor” value (Polygonum convolvulus; 125 g ai/ha) of the same compound?
Its value is 20%.

And the “herbicidal activity, solo application pretilachlor” value (Setaria viridis; 31.3 g ai/ha)?
The value was 25%.

And the “herbicidal activity, solo application pretilachlor” value (Setaria viridis; 63 g ai/ha)?
Its value is 50%.

What about the “herbicidal activity, solo application pretilachlor” value (Setaria viridis; 125 g ai/ha) of the same compound?
The value was 60%.

What about the “herbicidal activity, solo application pretilachlor” value (Sorghum halepense; 63 g ai/ha) of the same compound?
The value was 20%.

And the “herbicidal activity, solo application pretilachlor” value (Sorghum halepense; 125 g ai/ha)?
Its value is 30%.

What about the “herbicidal activity, solo application pretilachlor” value (Sorghum halepense; 250 g ai/ha) of the same compound?
The value was 55%.

What about the “herbicidal activity, solo application pretilachlor” value (Stellaria media; 31.3 g ai/ha) of the same compound?
Its value is 30%.

And the “herbicidal activity, solo application pretilachlor” value (Stellaria media; 63 g ai/ha)?
The value was 25%.

And the “herbicidal activity, solo application pretilachlor” value (Stellaria media; 125 g ai/ha)?
The value was 30%.

Which “herbicidal activity, solo application herbicide A” value (Abutilon theophrasti; 31.25 g ai/ha) does the source give for “(±)-2-exo-(2-Methylbenzyloxy)-1-methyl-4-isopropyl-7-oxabicyclo[2.2.1]heptane [herbicide A]” here?
Its value is 30%.

And the “herbicidal activity, solo application herbicide A” value (Abutilon theophrasti; 62.5 g ai/ha)?
The value was 60%.

And the “herbicidal activity, solo application herbicide A” value (Alopecurus myosuroides; 31.25 g ai/ha)?
The value was 98%.

What about the “herbicidal activity, solo application herbicide A” value (Alopecurus myosuroides; 62.5 g ai/ha) of the same compound?
Its value is 98%.

And the “herbicidal activity, solo application herbicide A” value (Alopecurus myosuroides; 125 g ai/ha)?
Its value is 98%.

What about the “herbicidal activity, solo application herbicide A” value (Anthemis arvensis; 31.25 g ai/ha) of the same compound?
Its value is 0%.

And the “herbicidal activity, solo application herbicide A” value (Anthemis arvensis; 62.5 g ai/ha)?
Its value is 0%.

What about the “herbicidal activity, solo application herbicide A” value (Anthemis arvensis; 125 g ai/ha) of the same compound?
Its value is 0%.

What about the “herbicidal activity, solo application herbicide A” value (Anthemis arvensis; 250 g ai/ha) of the same compound?
Its value is 30%.

And the “herbicidal activity, solo application herbicide A” value (Avena fatua; 31.25 g ai/ha)?
Its value is 0%.

What about the “herbicidal activity, solo application herbicide A” value (Avena fatua; 62.5 g ai/ha) of the same compound?
Its value is 0%.

What about the “herbicidal activity, solo application herbicide A” value (Avena fatua; 125 g ai/ha) of the same compound?
The value was 25%.

And the “herbicidal activity, solo application herbicide A” value (Avena fatua; 250 g ai/ha)?
Its value is 35%.

And the “herbicidal activity, solo application herbicide A” value (Chenopodium album; 31.25 g ai/ha)?
Its value is 40%.

And the “herbicidal activity, solo application herbicide A” value (Echinochloa crus-galli; 31.25 g ai/ha)?
The value was 98%.

And the “herbicidal activity, solo application herbicide A” value (Lolium multiflorum; 31.25 g ai/ha)?
The value was 60%.

And the “herbicidal activity, solo application herbicide A” value (Lolium multiflorum; 62.5 g ai/ha)?
Its value is 75%.

What about the “herbicidal activity, solo application herbicide A” value (Lolium multiflorum; 125 g ai/ha) of the same compound?
The value was 85%.

And the “herbicidal activity, solo application herbicide A” value (Geranium dissectum; 31.25 g ai/ha)?
The value was 50%.

And the “herbicidal activity, solo application herbicide A” value (Geranium dissectum; 62.5 g ai/ha)?
Its value is 60%.

What about the “herbicidal activity, solo application herbicide A” value (Geranium dissectum; 125 g ai/ha) of the same compound?
Its value is 60%.

What about the “herbicidal activity, solo application herbicide A” value (Polygonum convolvulus; 62.5 g ai/ha) of the same compound?
The value was 0%.

And the “herbicidal activity, solo application herbicide A” value (Polygonum convolvulus; 125 g ai/ha)?
Its value is 0%.

And the “herbicidal activity, solo application herbicide A” value (Polygonum convolvulus; 250 g ai/ha)?
The value was 15%.

And the “herbicidal activity, solo application herbicide A” value (Setaria viridis; 31.25 g ai/ha)?
Its value is 90%.

And the “herbicidal activity, solo application herbicide A” value (Setaria viridis; 62.5 g ai/ha)?
Its value is 98%.

What about the “herbicidal activity, solo application herbicide A” value (Setaria viridis; 125 g ai/ha) of the same compound?
The value was 98%.

And the “herbicidal activity, solo application herbicide A” value (Sorghum halepense; 62.5 g ai/ha)?
The value was 80%.

And the “herbicidal activity, solo application herbicide A” value (Sorghum halepense; 125 g ai/ha)?
Its value is 95%.

What about the “herbicidal activity, solo application herbicide A” value (Sorghum halepense; 250 g ai/ha) of the same compound?
The value was 98%.

And the “herbicidal activity, solo application herbicide A” value (Stellaria media; 31.25 g ai/ha)?
The value was 30%.

And the “herbicidal activity, solo application herbicide A” value (Stellaria media; 62.5 g ai/ha)?
Its value is 30%.

And the “herbicidal activity, solo application herbicide A” value (Stellaria media; 125 g ai/ha)?
The value was 40%.
